Legend:
[1] = Toxicity / survival of 17AAG dosing in mice (Kaplan Meier, signs of toxicity); format: in vivo
Procedure: (§1) This protocol yielded an approximate in situ spatial-peak temporal-average acoustic intensity of 270 W/cm^2, resulting in estimated average intra-tumoral temperature elevation of 3.2° C. Post-treatment, there were no signs of normal tissue toxicity such as alopecia, thermal damage, or skin wounds. […] Control mice were injected with equal volume of the vehicle DMSO, which was used to solubilize 17AAG.
Thus, these dose levels were selected for the current study. The goal was to combine two therapies that are nontoxic, albeit subtherapeutic, and examine whether the combination can be therapeutic. […] To detect the level of ER stress, the expression levels of ER chaperones, ERp44, ERp57, and ERp72 were quantitated among different treatment groups. ERp44 is responsible for oxidative protein folding. ERp57 is an ER resident thiol disulfide oxidoreductase while Erp72 is a disulfide isomerase. All these proteins participate in the protein folding machinery of the ER.
(§2) C57Bl/6 and BalbC nu/nu mice were injected subcutaneously with 1×10^5 RM-1 (murine prostate cancer cell line) and 1×10^6 PC3 (human prostate cancer cell line) cells on the flank, respectively. Approximately 10 days later, the tumor became palpable (3-5 mm in diameter), whereupon LOFU treatment was initiated. […] Palpable tumors were treated with LOFU every 3-4 days for five fractions administered over two weeks. Animals received 17AAG three times a week during this time. Tumor volume measurements were performed twice weekly using Vernier calipers along with simultaneous physical assessment of signs of systemic toxicity (malaise and diarrhea).
Mice survival/mortality in different treatment groups was analyzed by Kaplan-Meier as a function of radiation dose using Sigma-Plot and GraphPad Prism (version 4.0 for OS X, San Diego, CA, USA) software.

[2] = system: RM1 tumor (murine prostate cancer cell line); experiment: RM1 tumor growth in C57Bl/6 mice; format: in vivo, mouse; conditions: for tumor volume: untreated tumor 1879±98.65 mm^3
Procedure: as §1, §2

CHOP transcript = experiment: Real Time-PCR analysis of CHOP mRNA in tumors; format: in vivo, mouse; conditions: RM1 tumors
Description: Although phosphorylated eIF2α decreases the translation of most cellular proteins, including pro-survival and anti-apoptotic proteins, it increases the translation of a transcription factor, ATF4 that is responsible for inducing the transcription of pro-apoptotic genes, such as, CCAAT/enhancer-binding protein homologous protein (CHOP), thereby preparing the cell for programmed cell death in case the misfolded proteins are not repaired and ER stress persists.
Real Time PCR analysis of UPR target genes 24 hr after LOFU treatment the RM1 tumor cells were lysed using RLT buffer mixed with 1% betamercaptoethanol from RNeasy Mini Kit (Qiagen, Valencia, CA, USA).
Qiagen's protocol for the RNeasy Mini Kit with on-column DNA digestion was used to isolate RNA from the tumor lysates. The RNA samples were stored at −80° C., prior to further use. Isolated RNA was subjected to cDNA synthesis using the SuperScript™ First-Strand Synthesis System (Invitrogen, Grand Island, NY, USA). The splicing of XBP1 RNA was detected using the following primer pair 5′-[…]-3′ (SEQ ID NO:19) and 5′-[…]-3′ (SEQ ID NO:20) (Fisher Scientific, Pittsburgh, PA, USA). […]
Primers used for real time PCR included GRP78 5′[…]3′ (SEQ ID NO:21) and 5′[…]3′ (SEQ ID NO:22); EDEM 5′ […] […] Data was analyzed by web based PCR array data analysis software from SA Biosciences.

C=CCNC1=C2C[C@@H](C)C[C@H](OC)[C@H](O)[C@@H](C)/C=C(\C)[C@H](OC(N)=O)[C@@H](OC)/C=C\C=C(/C)C(=O)NC(=CC1=O)C2=O [17AAG, 17-N-allylamino-17-demethoxygeldanamycinan]
death of mice (Kaplan Meier survival analysis) ([1]; 75 mg/kg of body weight, after 21 days of treatment, C57Bl/6 mice): 50%
low dose found to be nontoxic ([1]; Balb/c nude mice): 14 mg/kg
low dose found to be nontoxic ([1]; C57Bl/6 mice): 25 mg/kg
normal tissue toxic effect ([1]; low dose 17AAG 25 mg/kg body weight, C57Bl/6 mice): did not show any normal tissue toxic effect
tumor volume ([2]; 17AAG 50 mg/kg b.w. i.p. three times a week, C57Bl/6 mice): 964 mm^3
tumor volume ([2]; 17AAG 75 mg/kg b.w. i.p. three times a week, C57Bl/6 mice): 485±24.25 mm^3
interval within which all the animals achieved tumor size 2000 mm^3 ([2]; RM1 tumors, 17AAG 25 mg/kg alone): 26 to 30 days
average estimated tumor growth slower compared to control group ([2]; RM1 tumors, 17AAG 25 mg/kg, C57Bl/6 mice): 9%
CHOP transcript levels, induction compared to untreated controls (CHOP transcript): 14.8±2 fold

From patent US12011619B2, “Low intensity focused ultrasound for treating cancer and metastasis” (priority 2015, dated 2024)
